Patent US20150018301A1, “LRRK-2-Mediated Neuronal Toxicity” (THE JOHNS HOPKINS UNIVERSITY, priority 2009, published 2015)

Columns and labels:
LRRK2 WT = LRRK2 WT (Homo sapiens, UniProt Q5S007); assay: In vitro kinase assay: LRRK2-mediated MBP phosphorylation; assay type: biochemical; details: for IC50: mean of three experiments; for MBP phosphorylation Average ± SEM: compound 16 μM, 30° C., 15 min, normalized to absence of compound, mean ± S.E.M. of three experiments; for effect on LRRK2-mediated phosphorylation of MBP: screen at 16 μM; for effect on WT LRRK2 MBP phosphorylation: dose-response
Sequence of LRRK2 WT (Q5S007 whole entry): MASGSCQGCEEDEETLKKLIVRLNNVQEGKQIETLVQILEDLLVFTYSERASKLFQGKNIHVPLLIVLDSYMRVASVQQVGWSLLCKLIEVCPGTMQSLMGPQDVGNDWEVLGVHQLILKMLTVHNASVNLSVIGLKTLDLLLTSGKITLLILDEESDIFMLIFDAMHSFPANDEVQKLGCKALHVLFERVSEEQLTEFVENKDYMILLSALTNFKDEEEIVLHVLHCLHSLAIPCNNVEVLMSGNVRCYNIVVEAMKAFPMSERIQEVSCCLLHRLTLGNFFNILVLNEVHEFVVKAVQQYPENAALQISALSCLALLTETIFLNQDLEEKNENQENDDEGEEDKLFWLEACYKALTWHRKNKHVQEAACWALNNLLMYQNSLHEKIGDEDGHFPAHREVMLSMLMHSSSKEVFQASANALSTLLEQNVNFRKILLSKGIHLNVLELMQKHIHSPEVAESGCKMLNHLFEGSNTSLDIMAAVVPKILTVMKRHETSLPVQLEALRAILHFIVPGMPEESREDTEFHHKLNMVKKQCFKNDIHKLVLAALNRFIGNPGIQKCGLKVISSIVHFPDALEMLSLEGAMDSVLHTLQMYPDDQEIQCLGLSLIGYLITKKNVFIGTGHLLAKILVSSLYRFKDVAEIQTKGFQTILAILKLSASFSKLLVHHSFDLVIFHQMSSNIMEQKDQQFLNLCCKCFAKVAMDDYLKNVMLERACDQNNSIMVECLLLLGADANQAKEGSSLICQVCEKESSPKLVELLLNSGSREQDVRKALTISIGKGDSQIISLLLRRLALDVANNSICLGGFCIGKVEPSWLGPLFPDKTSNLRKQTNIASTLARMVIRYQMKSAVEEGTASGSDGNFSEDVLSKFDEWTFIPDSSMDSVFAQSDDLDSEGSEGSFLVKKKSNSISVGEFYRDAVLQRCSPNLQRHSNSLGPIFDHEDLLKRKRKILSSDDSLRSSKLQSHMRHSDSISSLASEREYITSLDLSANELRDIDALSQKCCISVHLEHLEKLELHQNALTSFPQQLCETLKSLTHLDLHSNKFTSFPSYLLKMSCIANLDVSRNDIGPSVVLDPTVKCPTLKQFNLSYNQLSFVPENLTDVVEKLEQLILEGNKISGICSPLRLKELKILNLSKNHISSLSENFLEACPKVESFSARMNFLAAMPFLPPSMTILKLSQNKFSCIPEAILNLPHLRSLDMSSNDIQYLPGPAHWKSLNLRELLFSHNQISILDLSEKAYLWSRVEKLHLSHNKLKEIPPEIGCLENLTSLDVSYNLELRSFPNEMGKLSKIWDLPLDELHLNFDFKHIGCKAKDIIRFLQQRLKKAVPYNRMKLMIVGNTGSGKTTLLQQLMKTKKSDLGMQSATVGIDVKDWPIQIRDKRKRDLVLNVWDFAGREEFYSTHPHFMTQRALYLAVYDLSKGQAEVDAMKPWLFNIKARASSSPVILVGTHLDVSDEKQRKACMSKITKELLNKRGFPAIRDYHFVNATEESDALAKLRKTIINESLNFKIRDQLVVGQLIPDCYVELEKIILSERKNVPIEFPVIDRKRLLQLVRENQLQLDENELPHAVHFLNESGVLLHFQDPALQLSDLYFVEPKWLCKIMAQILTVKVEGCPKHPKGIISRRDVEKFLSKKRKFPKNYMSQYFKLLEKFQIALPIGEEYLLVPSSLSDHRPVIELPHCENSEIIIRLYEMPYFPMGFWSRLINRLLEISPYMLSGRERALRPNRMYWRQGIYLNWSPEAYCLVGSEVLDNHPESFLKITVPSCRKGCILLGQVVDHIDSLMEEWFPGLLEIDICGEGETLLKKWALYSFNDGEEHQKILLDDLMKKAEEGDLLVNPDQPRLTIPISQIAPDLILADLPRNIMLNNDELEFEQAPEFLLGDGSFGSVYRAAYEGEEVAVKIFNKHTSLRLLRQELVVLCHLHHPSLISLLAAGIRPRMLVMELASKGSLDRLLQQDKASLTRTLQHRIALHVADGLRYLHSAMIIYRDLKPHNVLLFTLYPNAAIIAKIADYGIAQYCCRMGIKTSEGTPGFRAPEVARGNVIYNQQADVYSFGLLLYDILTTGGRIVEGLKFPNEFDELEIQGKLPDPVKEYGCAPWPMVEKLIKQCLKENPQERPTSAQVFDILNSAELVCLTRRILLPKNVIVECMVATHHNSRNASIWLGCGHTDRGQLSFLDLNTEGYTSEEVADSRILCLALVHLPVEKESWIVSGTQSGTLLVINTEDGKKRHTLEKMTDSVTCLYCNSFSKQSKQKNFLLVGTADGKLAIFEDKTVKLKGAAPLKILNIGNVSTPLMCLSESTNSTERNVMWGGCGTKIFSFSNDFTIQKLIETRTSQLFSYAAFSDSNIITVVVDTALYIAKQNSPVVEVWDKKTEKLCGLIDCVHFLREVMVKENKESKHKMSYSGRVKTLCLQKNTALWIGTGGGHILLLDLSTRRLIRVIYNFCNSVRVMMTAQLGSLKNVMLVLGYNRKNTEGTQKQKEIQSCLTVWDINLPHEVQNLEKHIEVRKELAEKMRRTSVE

LRRK2 G2019S [1] = molecular target: T1, LRRK2 G2019S (Homo sapiens, UniProt Q5S007, G2019S); assay: In vitro kinase assay: G2019S LRRK2-mediated MBP phosphorylation; assay type: biochemical; details: for IC50: Table 2, mean of three experiments; for effect on G2019S LRRK2 MBP phosphorylation: dose-response
T1 sequence (Q5S007 whole entry G2019S): as the sequence (Q5S007 whole entry) above, with G2019S counted along it
Experimental: (§1) Transfection was performed by using Fugene HD reagent (Roche Applied Science) according to the manufacturer's instruction. For purification of recombinant LRRK1 and LRRK2 proteins, ACTA Purifier (GE Healthcare) FPLC system was used.
(§2) Resulting lysates were rotated at 4° C. for 30 min followed by centrifugation at 20,000×g for 15 min. The supernatants were injected into a GSTrap FF column pre-equilibrated with PBS at 0.5. mL/min flow after filtration using a 0.2 μm syringe filter (Corning). The bound proteins were eluted with buffer containing 10 mM GSH (Sigma), 150 mM NaCl, and 50 mM Tris-HCl (pH 8.0).
(§3) The in vitro kinase assay was performed as previously described. […] Recombinant LRRK2 and MBP or CST-4E-BP1 were combined before the kinase reaction. LRRK2 autophosphorylation is LRRK2 itself phosphorylation and MBP or GST-4E-BP1 phosphorylation is induced by LRRK2. After the kinase reaction, combined LRRK2 and MBP or GST-4E-BP1 were loaded on SDSPAGE and phosphorylated LRRK2 and MBP or GST-4E-BP1 could be detected separately an a single gel. Recombinant proteins and inhibitors were incubated at 30° C. in kinase assay buffer containing 20 mM Hepes (pH 7.4), 5 mM EGTA, and 20 mM β-glycerol phosphate. 0.5 μg MBP (Upstate) or 0.5 μg GST-4B-BP1, 50 μM ATP (Sigma), 20 mM MgCl2, and 1 μCi [γ-32P] ATP (PerkinElmer) was added after 5 min. The reaction was performed at 30° C. to reduce non-specific 32P incorporation for 15 min and terminated by the addition of 5×Laemmili sample buffer. […] Gels were stained by coomassie brilliant blue after fixation with 10% acetic acid and 40% methanol and then exposed to a Phosphoimager. Data were analyzed by ImageQuant 6.0 software.
(§4) To calculate the IC50 value, a dose-response curve was constructed and non-linear regression analysis using the equation for a sigmoid plot.

LRRK2 G2019S [2] = molecular target: T1, LRRK2 G2019S; assay: In vitro kinase assay: G2019S LRRK2 autophosphorylation; assay type: biochemical; details: for IC50: Table 2, mean of three experiments; for effect on G2019S LRRK2 autophosphorylation: dose-response
Experimental: as §1, §2, §3, §4

LRRK1 WT [3] = molecular target: T2, LRRK1 WT (Homo sapiens, UniProt Q38SD2); assay: In vitro kinase assay: LRRK1-mediated MBP phosphorylation; assay type: biochemical; details: for IC50: Table 3, mean of three experiments
T2 sequence (Q38SD2 whole entry): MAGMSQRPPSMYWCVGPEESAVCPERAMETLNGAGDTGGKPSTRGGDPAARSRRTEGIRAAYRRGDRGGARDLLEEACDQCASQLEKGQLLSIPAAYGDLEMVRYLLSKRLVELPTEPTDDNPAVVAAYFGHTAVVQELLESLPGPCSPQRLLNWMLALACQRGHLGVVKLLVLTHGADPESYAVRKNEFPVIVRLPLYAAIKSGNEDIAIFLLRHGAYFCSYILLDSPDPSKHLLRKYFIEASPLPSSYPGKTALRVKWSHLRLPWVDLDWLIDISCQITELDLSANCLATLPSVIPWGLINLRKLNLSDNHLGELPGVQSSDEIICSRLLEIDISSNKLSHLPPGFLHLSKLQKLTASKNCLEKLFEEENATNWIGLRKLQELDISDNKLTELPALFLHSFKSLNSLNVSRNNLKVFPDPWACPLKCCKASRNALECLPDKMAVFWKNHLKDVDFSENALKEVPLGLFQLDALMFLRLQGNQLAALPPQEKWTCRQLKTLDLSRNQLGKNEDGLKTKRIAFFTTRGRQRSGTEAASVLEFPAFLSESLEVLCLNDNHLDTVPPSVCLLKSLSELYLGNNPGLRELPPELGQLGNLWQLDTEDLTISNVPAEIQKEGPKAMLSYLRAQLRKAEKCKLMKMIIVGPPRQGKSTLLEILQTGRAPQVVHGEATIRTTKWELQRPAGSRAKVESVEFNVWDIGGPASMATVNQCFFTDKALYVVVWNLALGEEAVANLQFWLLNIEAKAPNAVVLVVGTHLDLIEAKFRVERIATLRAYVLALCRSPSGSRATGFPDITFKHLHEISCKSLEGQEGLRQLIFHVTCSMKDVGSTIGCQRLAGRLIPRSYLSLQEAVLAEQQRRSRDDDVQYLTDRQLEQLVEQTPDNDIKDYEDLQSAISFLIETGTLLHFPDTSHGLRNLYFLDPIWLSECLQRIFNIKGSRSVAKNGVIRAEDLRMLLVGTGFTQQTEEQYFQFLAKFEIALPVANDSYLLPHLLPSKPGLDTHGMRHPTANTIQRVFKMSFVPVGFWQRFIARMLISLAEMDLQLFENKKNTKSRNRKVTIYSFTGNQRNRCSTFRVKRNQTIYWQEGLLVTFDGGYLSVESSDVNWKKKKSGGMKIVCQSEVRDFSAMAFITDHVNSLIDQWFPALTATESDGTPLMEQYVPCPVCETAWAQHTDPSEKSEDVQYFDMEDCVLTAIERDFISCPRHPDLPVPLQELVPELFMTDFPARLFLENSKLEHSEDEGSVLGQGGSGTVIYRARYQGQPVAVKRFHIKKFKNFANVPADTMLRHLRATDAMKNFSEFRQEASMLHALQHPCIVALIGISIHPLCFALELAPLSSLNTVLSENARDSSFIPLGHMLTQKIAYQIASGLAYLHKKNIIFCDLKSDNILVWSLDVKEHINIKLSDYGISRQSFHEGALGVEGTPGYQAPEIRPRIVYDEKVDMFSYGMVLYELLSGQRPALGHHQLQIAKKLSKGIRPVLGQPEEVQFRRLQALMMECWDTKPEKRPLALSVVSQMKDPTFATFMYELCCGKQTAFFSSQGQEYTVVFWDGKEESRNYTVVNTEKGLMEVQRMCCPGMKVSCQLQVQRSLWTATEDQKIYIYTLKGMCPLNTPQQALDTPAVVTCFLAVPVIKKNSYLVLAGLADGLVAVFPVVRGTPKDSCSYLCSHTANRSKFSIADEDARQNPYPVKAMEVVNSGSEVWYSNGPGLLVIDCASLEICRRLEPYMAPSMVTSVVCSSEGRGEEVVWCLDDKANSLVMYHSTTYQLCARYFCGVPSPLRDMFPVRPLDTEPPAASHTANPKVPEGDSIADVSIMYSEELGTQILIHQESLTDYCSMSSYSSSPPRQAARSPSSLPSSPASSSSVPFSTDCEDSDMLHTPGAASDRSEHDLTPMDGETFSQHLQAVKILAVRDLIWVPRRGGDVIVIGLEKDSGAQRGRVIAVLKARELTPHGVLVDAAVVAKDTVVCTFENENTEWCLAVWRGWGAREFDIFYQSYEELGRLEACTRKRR

[4] = tested on: rat primary cortical neuronal cultures transfected with G2019S LRRK2; assay: LRRK2-induced neuronal toxicity in primary cortical neuronal cultures (neurite shortening, TUNEL); assay type: cell-based; details: 0.5 μM
Experimental: Representative photomicrographs of each experimental group. LRRK2 and eGFP constructs were combined in a molar ratio of 10:1, respectively, and transfected by using of Lipofectamine 2000 (Invitrogen) at DIV (day in vitro) 14 into rat primary cortical neuronal cultures. Compounds (0.5 μM) were administrated at the time of transfection and continued until toxicity assessments. On DIV 16, images were collected on a Zeiss Automatic stage with Axiovision 6.0. (a) Low magnified photomicrographs; (b and c) High magnified photomicrographs. Scale bar=50 μm (a) and 10 μm (b and c);
Primary cortical neuronal cultures were prepared from gestational day 15 fetal rats as previously described. Gonzalez-Zulueta, M., et al. Manganese superoxide dismutase protects nNOS neurons from NMDA and nitric oxide-mediated neurotoxicity. J Neurosci 18, 2040-2055 (1998). All procedures used in this study were approved by the Johns Hopkins Medical Institute Animal Care Committee. Cell viability assays and DNA fragmentation (TUNEL assay) were performed as previously described. Smith, W. W., et al. Kinase activity of mutant LRRK2 mediates neuronal toxicity. Nat Neurosci 9, 1231-1233 (2006); West, A. B., et al. Parkinson's disease-associated mutations in LRRK2 link enhanced GTP-binding and kinase activities to neuronal toxicity. Hum Mol Genet 16, 223-232 (2007). The cortex was dissected, incubated for 15 min in 0.027% trypsin, and then transferred to modified Eagle's medium (MEM)/10% horse serum/10% fetal bovine serum/2 mM glutamine followed by trituration. Dissociated cells were plated at a density of 3-4×10^5 cells per well in polyornithine-coated plates. After 4 days the cells were treated with 10 μg of 5-fluoro-2′-deoxyuridine to prevent proliferation of nonneuronal cells. Cells were maintained in MEM/5% horse serum/2 mM glutamine in 8% CO2 incubator. The medium was changed twice weekly. For assessment of LRRK2-mediated neuronal injury, LRRK2 and eGFP constructs were combined in a molar ratio of 10:1, respectively, and transfected into neurons with Lipofectamine 2000 (Invitrogen) at DIV (day in vitro) 14. On DIV 16, images were collected on a Zeiss Automatic stage with Axiovision 6.0. Viable neurons were defined as having at least one smooth extension (neurite) with twice the length of the cell body. The percentage of eGFP-positive injured neurons in each experimental group relative to those neurons transfected with eGFP was calculated.

LRRK1 WT [5] = molecular target: T2, LRRK1 WT; assay: In vitro kinase assay: LRRK1 autophosphorylation; assay type: biochemical; details: for IC50: Table 3, mean of three experiments

Compound | IC50 (LRRK2 WT; Table 2) [nM] | IC50 (LRRK2 WT; Table 3) [nM] | MBP phosphorylation Average ± SEM (LRRK2 WT) | effect on LRRK2-mediated phosphorylation of MBP (LRRK2 WT) | IC50 (LRRK2 G2019S [1]) [nM] | IC50 (LRRK2 G2019S [2]) [nM] | IC50 (LRRK1 WT [3]) [nM] | G2019S LRRK2 cell death (TUNEL) [4] | G2019S LRRK2 cell injury (neurite shortening) [4] | IC50 (LRRK1 WT [5]) [nM] | effect on WT LRRK2 MBP phosphorylation (LRRK2 WT) | effect on G2019S LRRK2 MBP phosphorylation (LRRK2 G2019S [1]) | effect on G2019S LRRK2 autophosphorylation (LRRK2 G2019S [2]) | effect on LRRK1 MBP phosphorylation (LRRK1 WT [3]) | effect on LRRK1 autophosphorylation (LRRK1 WT [5]) | G2019S LRRK2 toxicity [4]
O=C1Nc2ccc(I)cc2/C1=C/c1cc(Br)c(O)c(Br)c1 [Inhibitor 56, GW5074] | 3150 | 1090 | 4.7 ± 4.1 % of control | substantially inhibited | 880 | 220 | 3250 | attenuated | attenuated | 730 |  |  |  |  |  | 
O=C1Nc2ccccc2/C1=C1/Nc2ccccc2/C1=N\O [Inhibitor 70, Indirubin-3-monooxine] | 4830 | 4830 | 33.1 ± 15.7 % of control | substantially inhibited | 1310 | 380 | 3100 | attenuated | attenuated | 790 | inhibited | inhibited | inhibited | inhibited | inhibited | 
Cc1ccc(NC(=O)c2cccc(N(C)C)c2)cc1NC(=O)c1ccc(O)cc1 [Inhibitor 53, ZM336372] |  |  |  |  |  |  |  |  |  |  | no effect | no effect | no effect | minimal to no effect | minimal to no effect | failed to inhibit
